Assay results from patent EP0168965B1, “4(5)-substituted imidazoles” (ELI LILLY AND COMPANY, priority 1984, dated 1986).

Assays:
aromatase = target: T1, aromatase (Rattus norvegicus, UniProt P22443); experiment: Aromatase inhibition in the rat ovarian microsome assay; format: biochemical; details: read-out: EC50 (the source's name)
T1 construct: ovarian microsomes are obtained from rats treated with pregnant mares serum gonadotropin; from tissue; host or cells: rat ovarian microsomes (rats treated with pregnant mares serum gonadotropin)
T1 sequence (P22443 1-508): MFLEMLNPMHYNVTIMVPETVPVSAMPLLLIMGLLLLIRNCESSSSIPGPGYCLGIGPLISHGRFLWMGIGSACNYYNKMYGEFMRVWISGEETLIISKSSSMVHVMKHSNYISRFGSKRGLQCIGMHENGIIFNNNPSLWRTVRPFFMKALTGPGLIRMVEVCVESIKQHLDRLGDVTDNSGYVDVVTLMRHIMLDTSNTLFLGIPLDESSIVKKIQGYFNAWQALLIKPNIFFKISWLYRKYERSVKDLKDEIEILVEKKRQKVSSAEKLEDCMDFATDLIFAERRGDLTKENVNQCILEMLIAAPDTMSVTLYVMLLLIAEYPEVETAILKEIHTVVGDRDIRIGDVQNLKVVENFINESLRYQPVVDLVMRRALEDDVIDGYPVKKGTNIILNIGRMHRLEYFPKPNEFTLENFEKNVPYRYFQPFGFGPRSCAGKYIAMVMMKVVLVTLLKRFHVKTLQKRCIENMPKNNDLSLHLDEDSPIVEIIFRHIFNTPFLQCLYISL
Experimental: In this test system, ovarian microsomes are obtained from rats treated with pregnant mares serum gonadotropin. Test compounds are added to reaction vials containing 0.1 µM 4-androstene-3,17-dione, 100,000 dpm 1,2[^3H]-androstenedione, the microsomes and a NADPH generating system. The concentrations of the inhibitors tested ranged between 0.005 and 10 um.

synthesis of estrogens = experiment: Estrogen synthesis inhibition in rats (uterine weight and ovarian steroid concentrations); format: in vivo, Immature female Wistar rats; details: for Mean Steroid Concentration estradiol / Mean Steroid Concentration estriol / Mean Steroid Concentration estrone: ovaries
Experimental: Immature female Wistar rats (45-55 grams) were divided into control and test groups of 4-5 animals each. Test compounds were administered for seven days daily by gavage in corn oil. Control animals received corn oil without the test compound. Beginning on the fourth day of the test, all animals treated with the test compound and one half of the control animals were given a subcutaneous injection of 1.0 mg of testosterone propionate in corn oil. The remaining control animals received only an equivalent volume of corn oil. On the seventh day of the test, rats treated with testosterone propionate were injected subcutaneously with 100 µCi of [^3H]-testosterone in 50 pl of 3:1 (v/v) saline-ethanol.
After two hours, the animals were killed by decapitation. Uteri were isolated, trimmed of extraneous connective tissue, and weighed. […] In the control animals treated with testosterone propionate, estrogens produced by aromatization stimulated the uterus resulting in an increase in weight.
Ovaries from rats treated with [^3H]-testosterone were excised, cleaned of extraneous tissue, and homogenized in 2.5 ml of a 1.0 mM potassium phosphate buffer containing 3.0 mM MgC12-6H20, 320 mM sucrose, and 0.25% Triton X-100 (polyethylene glycol p-isooctyl phenyl ether, Rohm and Haas) at pH 6.5. The ovarian steroids were extracted with 1.5 ml of 9:1 (v/v) toluene/ethanol to which had been added 25 to 100 mcg each of unlabelled estradiol, estriol, and estrone, and approximately 1000 dpm of [^14C]-estradiol. The samples were vortexed, centrifuged at 500 x g for 10 minutes, and the organic phase was transferred to a conical vial. Two additional extractions were performed on the residue in the same way. The pooled organic extracts were evaporated for subsequent thin-layer chromatography.
Ovarian proteins were precipitated by the addition of 5.0 ml of ethanol to the remaining aqueous phase. After an overnight incubation at 4°C, the samples were centrifuged at 1500 x g for 10 minutes. The supernatant was discarded and the pellet was dissolved in 0.3 N potassium hydroxide. Protein was determined according to the method of Bradford, Analytical Biochemistry, 72, 248 (1976).
The organic residue from each above extraction was redissolved in 9:1 (v/v) dichioromethane/ methanol. The solution of each sample was applied to separate silica gel thin layer chromatography plates which contained a fluorescent indicator. The plates were developed in the first dimension with 160:38:1.5:0.5 (v/v/v/v) dichloromethane/ethyl acetate/methanol/acetic acid to within 3 cm of the top of the plate. After air-drying, the plate was developed in the second dimension with 180:19:1 (v/v/v) dichloromethane/methanol/ammonium hydroxide. The plate was air-dried and viewed under 254 nm UV light.
The visible spots were marked and the plates were sprayed with primulin (0.001% in 4:1 v/v acetone/ water) according to the method of Wright, J. Chromatography, '59, 220 (1971) which allowed for the identification of additional steroids under 365 nm UV light. The spots were scraped from the plate using a glass wool plugged Pasteur pipet attached to a vacuum line. The steroids were eluted directly into scintillation vials by the addition of 0.2 ml of dichloromethane followed by two washes each of 2.0 ml of methanol. The organic solvent was evaporated and 10.0 ml of scintillation fluid (Beckman Ready Solv-NA) was added to the vials. Samples were analyzed by liquid scintillation spectrometry. Corrections were made based on the recoveries of the [^14C]-steroid. Steroid concentrations are expressed as femtomoles per milligram protein.

[1] = 1 mg/kg p.o. by gavage daily for seven days
[2] = 3 mg/kg p.o. by gavage daily for seven days
[3] = 10 mg/kg p.o. by gavage daily for seven days
[4] = 30 mg/kg p.o. by gavage daily for seven days
[5] = 100 mg/kg p.o. by gavage daily for seven days

Fc1ccc(C(c2ccc(F)cc2)c2c[nH]cn2)cc1 [Example 1, 4(5)-[Bis(4-fluorophenyl)methyl]-1H-imidazole]
IC50 (aromatase): < 0.05 µM

OC(c1ccc(Cl)cc1)(c1ccc(Cl)cc1)c1c[nH]cn1 [Example 3, a,a-bis(4-chlorophenyl)-4(5)-imidazolemethanol]
Mean Steroid Concentration estradiol (synthesis of estrogens; [1]): 0.35 femtomoles per milligram of protein
Mean Steroid Concentration estriol (synthesis of estrogens; [1]): 0.132 femtomoles per milligram of protein
Mean Steroid Concentration estrone (synthesis of estrogens; [1]): 0.00 femtomoles per milligram of protein
Mean Uterine Weight (synthesis of estrogens; 1 mg/kg p.o. by gavage daily for seven days, testosterone propionate-treated rats): 214.2 mg
Mean Steroid Concentration estradiol (synthesis of estrogens; [2]): 0.31 femtomoles per milligram of protein
Mean Steroid Concentration estriol (synthesis of estrogens; [2]): 0.383 femtomoles per milligram of protein
Mean Steroid Concentration estrone (synthesis of estrogens; [2]): 0.05 femtomoles per milligram of protein
Mean Uterine Weight (mg) (synthesis of estrogens; 3 mg/kg p.o. by gavage daily for seven days, testosterone propionate-treated rats): 158.8^+ mg
Mean Steroid Concentration estradiol (synthesis of estrogens; [3]): 0.19^+ femtomoles per milligram of protein
Mean Steroid Concentration estriol (synthesis of estrogens; [3]): 0.218 femtomoles per milligram of protein
Mean Steroid Concentration estrone (synthesis of estrogens; [3]): 0.03 femtomoles per milligram of protein
Mean Uterine Weight (mg) (synthesis of estrogens; 10 mg/kg p.o. by gavage daily for seven days, testosterone propionate-treated rats): 131.2^+ mg
Mean Steroid Concentration estradiol (synthesis of estrogens; [4]): 0.22 femtomoles per milligram of protein
Mean Steroid Concentration estriol (synthesis of estrogens; [4]): 0.391 femtomoles per milligram of protein
Mean Steroid Concentration estrone (synthesis of estrogens; [4]): 0.07 femtomoles per milligram of protein
Mean Uterine Weight (mg) (synthesis of estrogens; 30 mg/kg p.o. by gavage daily for seven days, testosterone propionate-treated rats): 96.2^+ mg
Mean Steroid Concentration estradiol (synthesis of estrogens; [5]): 0.10^+ femtomoles per milligram of protein
Mean Steroid Concentration estriol (synthesis of estrogens; [5]): 0.534^+ femtomoles per milligram of protein
Mean Steroid Concentration estrone (synthesis of estrogens; [5]): 0.36^+ femtomoles per milligram of protein
Mean Uterine Weight (mg) (synthesis of estrogens; 100 mg/kg p.o. by gavage daily for seven days, testosterone propionate-treated rats): 79.5^+ mg

Fc1ccc(C(c2ccc(Cl)cc2)c2c[nH]cn2)cc1 (stereo not shown) [Example 2, 4(5)-[(4-Chlorophenyl)(4-fluorophenyl)methyl]imidazole]
IC50 (aromatase): < 0.05 µM
